Laboratory results taken from PubChem BioAssay AID2060896 (Molecular Pharmacology Branch, DTP, NCI, 2025).

Test system: 941728-121-R-J1-PDC complex spheroid viability
Test: Anticancer human tumor 941728-121-R-J1-PDC patient-derived lung adenocarcinoma cell line growth inhibition [RAS]
Details: for IC50: curve of first compound; for viability, T/C: stronger effect = lower value
In short: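 Tumour cells grown as complex spheroids with HUVEC endothelial cells and mesenchymal stem cells, treated with RAS pathway inhibitor combinations. Each agent spans half-log steps from near clinical Cmax, or 10 microM where Cmax is unknown.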

[1] = second compound 0.00316 µM, first compound 0.0316 µM
[2] = second compound 0.00316 µM, first compound 0.1 µM
[3] = second compound 0.00316 µM, first compound 0.316 µM
[4] = second compound 0.00316 µM, first compound 1 µM
[5] = second compound 0.00316 µM, first compound 3.16 µM
[6] = second compound 0.00316 µM, first compound 10 µM
[7] = second compound 0.01 µM, first compound 0.0316 µM
[8] = second compound 0.01 µM, first compound 0.1 µM
[9] = second compound 0.01 µM, first compound 0.316 µM
[10] = second compound 0.01 µM, first compound 1 µM
[11] = second compound 0.01 µM, first compound 3.16 µM
[12] = second compound 0.01 µM, first compound 10 µM
[13] = second compound 0.0316 µM, first compound 0.0316 µM
[14] = second compound 0.0316 µM, first compound 0.1 µM
[15] = second compound 0.0316 µM, first compound 0.316 µM
[16] = second compound 0.0316 µM, first compound 1 µM
[17] = second compound 0.0316 µM, first compound 3.16 µM
[18] = second compound 0.0316 µM, first compound 10 µM
[19] = second compound 0.1 µM, first compound 0.0316 µM
[20] = second compound 0.1 µM, first compound 0.1 µM
[21] = second compound 0.1 µM, first compound 0.316 µM
[22] = second compound 0.1 µM, first compound 1 µM
[23] = second compound 0.1 µM, first compound 3.16 µM
[24] = second compound 0.1 µM, first compound 10 µM
[25] = second compound 0.316 µM, first compound 0.0316 µM
[26] = second compound 0.316 µM, first compound 0.1 µM
[27] = second compound 0.316 µM, first compound 0.316 µM
[28] = second compound 0.316 µM, first compound 1 µM
[29] = second compound 0.316 µM, first compound 3.16 µM
[30] = second compound 0.316 µM, first compound 10 µM
[31] = second compound 1 µM, first compound 0.0316 µM
[32] = second compound 1 µM, first compound 0.1 µM
[33] = second compound 1 µM, first compound 0.316 µM
[34] = second compound 1 µM, first compound 1 µM
[35] = second compound 1 µM, first compound 3.16 µM
[36] = second compound 1 µM, first compound 10 µM
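Further: spheroids exposed to compounds for 7 days before readout.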
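Wherever viability, T/C is given: 100% = DMSO vehicle control viability.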

Compound: Cc1nc(N2CCC3(CC2)COC(C)C3N)c(CO)nc1Sc1ccnc(N)c1Cl (stereo unspecified) + C=CC(=O)N1CCN(c2nc(OCC3CCCN3C)nc3c(F)c(-c4nc(N)cc(C)c4C(F)(F)F)c(Cl)cc23)C(C)C1
- IC50 (second compound 0.00316 µM): < 31.6 nM
- IC50 (second compound 0.01 µM): < 31.6 nM
- IC50 (second compound 0.0316 µM): < 31.6 nM
- IC50 (second compound 0.1 µM): < 31.6 nM
- IC50 (second compound 0.316 µM): < 31.6 nM
- IC50 (second compound 1 µM): < 31.6 nM
- viability, T/C [1]: 19%
- viability, T/C [2]: 17.5%
- viability, T/C [3]: 16.5%
- viability, T/C [4]: 17.4%
- viability, T/C [5]: 16.4%
- viability, T/C [6]: 17.3%
- viability, T/C [7]: 17.8%
- viability, T/C [8]: 17.4%
- viability, T/C [9]: 18.4%
- viability, T/C [10]: 20.9%
- viability, T/C [11]: 16.2%
- viability, T/C [12]: 16.3%
- viability, T/C [13]: 18.5%
- viability, T/C [14]: 18.3%
- viability, T/C [15]: 13.9%
- viability, T/C [16]: 15.6%
- viability, T/C [17]: 15.9%
- viability, T/C [18]: 16.9%
- viability, T/C [19]: 19%
- viability, T/C [20]: 16.7%
- viability, T/C [21]: 15.5%
- viability, T/C [22]: 17.6%
- viability, T/C [23]: 17.8%
- viability, T/C [24]: 14.9%
- viability, T/C [25]: 19.3%
- viability, T/C [26]: 28.2%
- viability, T/C [27]: 18.2%
- viability, T/C [28]: 16.4%
- viability, T/C [29]: 15.9%
- viability, T/C [30]: 15.9%
- viability, T/C [31]: 20.2%
- viability, T/C [32]: 18.2%
- viability, T/C [33]: 15.9%
- viability, T/C [34]: 16.1%
- viability, T/C [35]: 19.1%
- viability, T/C [36]: 18.1%

Compound: NC1c2ccccc2OC12CCN(c1cnc3c(N4CCCc5ncccc54)n[nH]c3n1)CC2 (stereo unspecified) + C=CC(=O)N1CCN(c2nc(OCC3CCCN3C)nc3c(F)c(-c4nc(N)cc(C)c4C(F)(F)F)c(Cl)cc23)C(C)C1
- IC50 (second compound 0.00316 µM): < 31.6 nM
- IC50 (second compound 0.01 µM): < 31.6 nM
- IC50 (second compound 0.0316 µM): < 31.6 nM
- IC50 (second compound 0.1 µM): < 31.6 nM
- IC50 (second compound 0.316 µM): < 31.6 nM
- IC50 (second compound 1 µM): < 31.6 nM
- viability, T/C [1]: 15.4%
- viability, T/C [2]: 15.1%
- viability, T/C [3]: 15.6%
- viability, T/C [4]: 17%
- viability, T/C [5]: 16.8%
- viability, T/C [6]: 17.1%
- viability, T/C [7]: 18.8%
- viability, T/C [8]: 15.7%
- viability, T/C [9]: 16.2%
- viability, T/C [10]: 15.5%
- viability, T/C [11]: 17.1%
- viability, T/C [12]: 17.5%
- viability, T/C [13]: 16.4%
- viability, T/C [14]: 15.7%
- viability, T/C [15]: 15.8%
- viability, T/C [16]: 16.8%
- viability, T/C [17]: 15.9%
- viability, T/C [18]: 16.3%
- viability, T/C [19]: 15%
- viability, T/C [20]: 15.3%
- viability, T/C [21]: 16%
- viability, T/C [22]: 17.6%
- viability, T/C [23]: 17%
- viability, T/C [24]: 17%
- viability, T/C [25]: 16.3%
- viability, T/C [26]: 16.8%
- viability, T/C [27]: 17%
- viability, T/C [28]: 16.9%
- viability, T/C [29]: 15.7%
- viability, T/C [30]: 16%
- viability, T/C [31]: 16.1%
- viability, T/C [32]: 15.1%
- viability, T/C [33]: 16%
- viability, T/C [34]: 16.6%
- viability, T/C [35]: 17.6%
- viability, T/C [36]: 17.2%

Compound: Nc1ccn(C2OC(CO)C(O)C2(F)F)c(=O)n1 (stereo unspecified) + C=CC(=O)N1CCN(c2nc(OCC3CCCN3C)nc3c(F)c(-c4nc(N)cc(C)c4C(F)(F)F)c(Cl)cc23)C(C)C1
- IC50 (second compound 0.00316 µM): < 3.16 nM
- IC50 (second compound 0.01 µM): < 3.16 nM
- IC50 (second compound 0.0316 µM): < 3.16 nM
- IC50 (second compound 0.1 µM): < 3.16 nM
- IC50 (second compound 0.316 µM): < 3.16 nM
- IC50 (second compound 1 µM): < 3.16 nM
- viability, T/C (second compound 0.00316 µM, first compound 0.00316 µM): 17.8%
- viability, T/C (second compound 0.00316 µM, first compound 0.01 µM): 14.8%
- viability, T/C [1]: 15.2%
- viability, T/C [2]: 14%
- viability, T/C [3]: 15.9%
- viability, T/C [4]: 15.6%
- viability, T/C (second compound 0.01 µM, first compound 0.00316 µM): 17.7%
- viability, T/C (second compound 0.01 µM, first compound 0.01 µM): 14.7%
- viability, T/C [7]: 16.3%
- viability, T/C [8]: 16.2%
- viability, T/C [9]: 14.5%
- viability, T/C [10]: 13.3%
- viability, T/C (second compound 0.0316 µM, first compound 0.00316 µM): 14.9%
- viability, T/C (second compound 0.0316 µM, first compound 0.01 µM): 15.6%
- viability, T/C [13]: 15.7%
- viability, T/C [14]: 13.3%
- viability, T/C [15]: 14.9%
- viability, T/C [16]: 15.2%
- viability, T/C (second compound 0.1 µM, first compound 0.00316 µM): 16.9%
- viability, T/C (second compound 0.1 µM, first compound 0.01 µM): 13.9%
- viability, T/C [19]: 15.4%
- viability, T/C [20]: 14.1%
- viability, T/C [21]: 12.1%
- viability, T/C [22]: 12.6%
- viability, T/C (second compound 0.316 µM, first compound 0.00316 µM): 16.4%
- viability, T/C (second compound 0.316 µM, first compound 0.01 µM): 16.1%
- viability, T/C [25]: 15.9%
- viability, T/C [26]: 14.3%
- viability, T/C [27]: 15.8%
- viability, T/C [28]: 13.8%
- viability, T/C (second compound 1 µM, first compound 0.00316 µM): 18.9%
- viability, T/C (second compound 1 µM, first compound 0.01 µM): 15.8%
- viability, T/C [31]: 15.8%
- viability, T/C [32]: 16.6%
- viability, T/C [33]: 14%
- viability, T/C [34]: 12.6%
